Test results from US12612379B2, “Inhibitors of APOL1 and methods of using same” (Vertex Pharmaceuticals Incorporated, priority 2021, dated 2026).

Molecular target: T1, APOL1 (tet-inducible transgenic APOL1 T-REx-HEK293 cell lines) (Homo sapiens, UniProt O14791)
T1 sequence (O14791 1-398 S342G/I384M): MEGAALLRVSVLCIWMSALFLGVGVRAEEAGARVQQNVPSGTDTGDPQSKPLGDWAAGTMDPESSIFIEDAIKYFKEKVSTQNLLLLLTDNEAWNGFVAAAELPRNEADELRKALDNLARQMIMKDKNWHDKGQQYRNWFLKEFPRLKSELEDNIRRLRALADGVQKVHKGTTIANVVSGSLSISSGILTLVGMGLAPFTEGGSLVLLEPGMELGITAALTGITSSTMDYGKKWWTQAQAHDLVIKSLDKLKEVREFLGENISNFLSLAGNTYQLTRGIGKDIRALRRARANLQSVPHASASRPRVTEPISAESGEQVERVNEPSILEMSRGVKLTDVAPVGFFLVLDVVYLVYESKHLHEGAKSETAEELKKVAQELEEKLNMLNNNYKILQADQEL
Experiment: MultiTox-Fluor Multiplex Cytotoxicity Assay for APOL1 inhibitor properties
Assay type: cell-based
Settings: APOL1 induced with 50 ng/mL tet, 24 hours with compound, ratio of dead to live cells, top concentration 10 μM; APOL1 variant (G0/G1/G2) not stated; read-out: IP50 (nM) (i.e., IC50 for cell proliferation)
Protocol: The MultiTox-Fluor Multiplex Cytotoxicity Assay is a single-reagent-addition, homogeneous, fluorescence assay that measures the number of live and dead cells simultaneously in culture wells. The assay measures cell viability and cytotoxicity by detecting two distinct protease activities. The live-cell protease activity is restricted to intact viable cells and is measured using a fluorogenic, cell-permeant peptide glycyl-phenylalanylamino fluorocoumarin (GF-AFC) substrate. The substrate enters intact cells, where it is cleaved to generate a fluorescent signal proportional to the number of living cells. […] A second, cell-impermeant, fluorogenic peptide substrate (bis-AAF-R110 Substrate) is used to measure dead-cell protease that has been released from cells that have lost membrane integrity. A ratio of dead to live cells is used to normalize data.
Briefly, the tet-inducible transgenic APOL1 T-REx-HEK293 cell lines were incubated with 50 ng/mL tet to induce APOL1 in the presence of 3-(2-(4-fluorophenyl)-1H-indol-3-yl)-N-((3S,4R)-4-hydroxy-2-oxopyrrolidin-3-yl)propenamide at 10.03, 3.24, 1.13, 0.356, 0.129, 0.042, 0.129, 0.0045, 0.0015, 0.0005 μM in duplicate for 24 hours in a humidified 37° C. incubator. The MultiTox reagent was added to each well and placed back in the incubator for an additional 30 minutes. The plate was read on the EnVision plate reader. A ratio of dead to live cells was used to normalize, and data was imported, analyzed, and fit using Genedata Screener (Basel, Switzerland) software. Data was normalized using percent of control, no tet (100% viability), and 50 ng/mL tet treated (0% viability), and fit using Smart Fit. The reagents, methods, and complete protocol for the MultiTox assay are described below.
Human embryonic kidney (HEK293) cell lines containing a tet-inducible expression system (T-REx™; Invitrogen, Carlsbad, CA) and Adeno-associated virus site 1 pAAVS1-Puro-APOL1 G0 or pAAVS1-Puro-APOL1 G1 or pAAVS1-Puro-APOL1 G2 Clones G0 DC2.13, G1 DC3.25, and G2 DC4.44 were grown in a T-225 flask at ˜90% confluency in cell growth media (DMEM, 10% Tet-free FBS, 2 mM L-glutamine, 100 Units/mL penicillin-streptomycin, 5 μg/mL blasticidin S HCl, 1 μg/mL puromycin dihydrochloride). Cells were washed with DPBS and then trypsinized to dissociate from the flask. Media was used to quench the trypsin, cells were then pelleted at 200 g and resuspended in fresh cell assay media (DMEM, 2% Tet-free FBS, 2 mM L-glutamine, 100 Units/mL penicillin-streptomycin). Cells were counted and diluted to 1.17×10^6 cells/mL. 20 μL of cells (23,400/well) were dispensed in every well of a 384-well Poly-D-Lysine coated plate using the Multidrop dispenser. The plates were then incubated at room temperature for one hour.
Tetracycline is needed to induce APOL1 expression. 1 mg/mL tet stock in water was diluted to 250 ng/mL (5×) in cell assay media. 60 μL of cell assay media (no tet control) was dispensed in columns 1 and 24, and 60 μL of 5×tet in 384-PP-round bottom plate was dispensed in columns 2 to 23 with the Multidrop dispenser.
Assay ready plates from the Global Compound Archive were ordered using template 384_APOL1Cell_DR10n2_50 uM_v3. Compounds were dispensed at 200 nL in DMSO. The final top concentration was 10 μM with a 10 point 3-fold dilution in duplicate in the MultiTox assay.
20 μL was transferred from the 5×tet plate to the ARP and mixed, then 5 μL of 5×tet and the compounds were transferred to the cell plate and mixed using the Bravo. The cell plate was placed in the humidified 37° C. 5% CO2 incubator for 24 hours.
The MultiTox-Fluor Multiplex Cytotoxicity Assay was performed in accordance with the manufacturer's protocol. After cells were incubated with tet and compound for 24 hours, 25 μL of 1×MultiTox reagent was added to each well using the Multidrop dispenser; the plates were placed on a plate shaker (600 rpm) for 2 minutes, then centrifuged briefly and placed back in the 37° C. incubator for 30 minutes. […]

SMILES | IC50
C[C@@H]1C[C@](O)(c2cccc(Cl)c2)C[C@H](C)N1 [Compound 1] | ≥ 500 nM
CC1CC(O)(c2cccc(Cl)c2)CC(c2cnn(CCS(C)(=O)=O)c2)N1 (stereo not drawn) [Compound 2] | 50 to 500 nM
C[C@H]1C[C@@](O)(c2cccc(Cl)c2)C[C@@H](c2cn(C)nn2)N1 [Compound 3] | 50 to 500 nM
C[C@H]1C[C@@](O)(c2ccc(Cl)cc2)C[C@@H](c2cn(C)nn2)N1 [Compound 4] | ≤ 50 nM
Cc1ccc([C@@]2(O)C[C@@H](c3cn(C)nn3)N[C@@H](C)C2)cc1 [Compound 5] | 50 to 500 nM
Cc1cccc([C@@]2(O)C[C@@H](c3cn(C)nn3)N[C@@H](C)C2)c1 [Compound 6] | 50 to 500 nM
C[C@H]1C[C@@](O)(c2ccccc2)C[C@@H](c2cn(C)nn2)N1 [Compound 7] | ≥ 500 nM
CC(C)c1ccc([C@@]2(O)C[C@@H](c3cn(C)nn3)N[C@@H](C)C2)cc1 [Compound 8] | ≤ 50 nM
C[C@H]1C[C@@](O)(c2ccc(F)c(Cl)c2)C[C@@H](c2cn(C)nn2)N1 [Compound 9] | 50 to 500 nM
C[C@H]1C[C@@](O)(c2cc(F)cc(Cl)c2)C[C@@H](c2cn(C)nn2)N1 [Compound 10] | 50 to 500 nM
Cc1ccc([C@@]2(O)C[C@@H](c3cn(C)nn3)N[C@@H](C)C2)cc1F [Compound 11] | 50 to 500 nM
Cc1cc([C@@]2(O)C[C@@H](c3cn(C)nn3)N[C@@H](C)C2)ccc1F [Compound 12] | 50 to 500 nM
C[C@H]1C[C@@](O)(c2ccc(Cl)c(F)c2)C[C@@H](c2cn(C)nn2)N1 [Compound 13] | ≤ 50 nM
C[C@H]1C[C@@](O)(c2csc(C(F)(F)F)c2)C[C@@H](c2cn(C)nn2)N1 [Compound 14] | 50 to 500 nM
C[C@H]1C[C@@](O)(c2ccc(F)cc2)C[C@@H](c2cn(C)nn2)N1 [Compound 15] | ≥ 500 nM
C[C@H]1C[C@@](O)(c2ccc(C(F)(F)F)cc2)C[C@@H](c2cn(C)nn2)N1 [Compound 16] | ≤ 50 nM
C[C@H]1C[C@@](O)(c2ccc(Cl)nc2)C[C@@H](c2cn(C)nn2)N1 [Compound 17] | 50 to 500 nM
C[C@H]1C[C@@](O)(c2ccc(Cl)cn2)C[C@@H](c2cn(C)nn2)N1 [Compound 18] | 50 to 500 nM
COc1cc([C@@]2(O)C[C@@H](c3cn(C)nn3)N[C@@H](C)C2)ccc1Cl [Compound 19] | ≤ 50 nM
COc1cc(Cl)ccc1[C@@]1(O)C[C@@H](c2cn(C)nn2)N[C@@H](C)C1 [Compound 20] | ≥ 500 nM
Cc1cc(Cl)ccc1[C@@]1(O)C[C@@H](c2cn(C)nn2)N[C@@H](C)C1 [Compound 21] | 50 to 500 nM
C[C@H]1C[C@@](O)(c2ccc(Cl)cc2F)C[C@@H](c2cn(C)nn2)N1 [Compound 22] | ≤ 50 nM
C[C@H]1C[C@@](O)(c2ccc(Cl)c(OC(F)(F)F)c2)C[C@@H](c2cn(C)nn2)N1 [Compound 23] | ≤ 50 nM
C[C@H]1C[C@@](O)(c2ccc(Cl)c(C(=O)N(C)C)c2)C[C@@H](c2cn(C)nn2)N1 [Compound 24] | 50 to 500 nM
C[C@H]1C[C@@](O)(c2ccc(C(F)(F)F)c(F)c2)C[C@@H](c2cn(C)nn2)N1 [Compound 25] | ≤ 50 nM
Cc1cc([C@@]2(O)C[C@@H](c3cn(C)nn3)N[C@@H](C)C2)ccc1Cl [Compound 26] | ≤ 50 nM

SMILES | IC50
C[C@H]1C[C@@](O)(c2ccc(Br)cc2)C[C@@H](c2cn(C)nn2)N1 [Compound 27] | ≤ 50 nM
COc1cc([C@@]2(O)C[C@@H](c3cn(C)nn3)N[C@@H](C)C2)ccc1C(F)(F)F [Compound 28] | ≤ 50 nM
C[C@H]1C[C@@](O)(c2ccc(C3CC3)cc2)C[C@@H](c2cn(C)nn2)N1 [Compound 29] | ≤ 50 nM
C[C@H]1C[C@@](O)(c2ccc(C#N)cc2)C[C@@H](c2cn(C)nn2)N1 [Compound 30] | 50 to 500 nM
C[C@H]1C[C@@](O)(c2ccc3c(c2)CC(C)(C)O3)C[C@@H](c2cn(C)nn2)N1 [Compound 31] | ≥ 500 nM
C[C@H]1C[C@@](O)(c2ccc3c(c2)C2(CCO3)CC2)C[C@@H](c2cn(C)nn2)N1 [Compound 32] | 50 to 500 nM
C[C@H]1C[C@@](O)(c2ccc(Cl)c(C(F)(F)F)c2)C[C@@H](c2cn(C)nn2)N1 [Compound 33] | ≤ 50 nM
Cc1cc([C@@]2(O)C[C@@H](c3cn(C)nn3)N[C@@H](C)C2)ccc1C(F)(F)F [Compound 34] | ≤ 50 nM
C[C@H]1C[C@@](O)(c2ccnc(C(F)(F)F)c2)C[C@@H](c2cn(C)nn2)N1 [Compound 35] | ≥ 500 nM
C[C@H]1C[C@@](O)(c2ccc(C(F)(F)F)c(Cl)c2)C[C@@H](c2cn(C)nn2)N1 [Compound 36] | ≤ 50 nM
C[C@H]1C[C@@](O)(c2ccc(C(F)(F)F)nc2)C[C@@H](c2cn(C)nn2)N1 [Compound 37] | 50 to 500 nM
C[C@H]1C[C@@](O)(c2ccc(C(F)F)cc2)C[C@@H](c2cn(C)nn2)N1 [Compound 38] | ≤ 50 nM
C[C@H]1C[C@@](O)(c2ccc(C(C)(F)F)cc2)C[C@@H](c2cn(C)nn2)N1 [Compound 39] | ≤ 50 nM
C[C@H]1C[C@@](O)(c2ccc3c(c2)OC(F)(F)C3(F)F)C[C@@H](c2cn(C)nn2)N1 [Compound 40] | ≤ 50 nM
C[C@H]1C[C@@](O)(c2ccc3c(c2)CCC3(F)F)C[C@@H](c2cn(C)nn2)N1 [Compound 41] | < 10000 nM
COc1cc([C@]2(O)C[C@H](C)N(C)[C@H](c3cn(C)nn3)C2)ccc1C(F)(F)F [Compound 42] | 50 to 500 nM
C[C@H]1C[C@@](O)(c2ccc(C(F)(F)F)c(O)c2)C[C@@H](c2cn(C)nn2)N1 [Compound 43] | ≤ 50 nM
C[C@H]1C[C@@](O)(c2ccc(C(F)(F)F)cc2O)C[C@@H](c2cn(C)nn2)N1 [Compound 44] | 50 to 500 nM
C[C@H]1C[C@@](O)(CS(=O)(=O)c2ccc(Br)cc2)C[C@@H](c2cn(C)nn2)N1 [Compound 45] | ≥ 500 nM
C[C@H]1C[C@@](C#N)(c2ccc(C(F)(F)F)cc2)C[C@@H](c2cn(C)nn2)N1 [Compound 46, (2S,4S,6S)-2-methyl-6-(1-methyltriazol-4-yl)-4-[4-(trifluoromethyl)phenyl]piperidine-4-carbonitrile] | 50 to 500 nM
C[C@H]1C[C@@](O)(c2ccc(C(F)(F)C(F)(F)F)cc2)C[C@@H](c2cn(C)nn2)N1 [Compound 47] | ≤ 50 nM
C[C@H]1C[C@@](O)(c2cccc(C(F)(F)F)c2)C[C@@H](c2cn(C)nn2)N1 [Compound 48] | 50 to 500 nM
C[C@H]1C[C@@](O)(c2ccc(SC3CC3)cc2)C[C@@H](c2cn(C)nn2)N1 [Compound 49] | 50 to 500 nM
C[C@H]1C[C@@](O)(c2ccc(C(F)(F)F)c(OC(F)(F)F)c2)C[C@@H](c2cn(C)nn2)N1 [Compound 50] | ≤ 50 nM
C[C@H]1C[C@@](O)(c2ccc(C(F)(F)F)c(C(F)(F)F)c2)C[C@@H](c2cn(C)nn2)N1 [Compound 51] | ≤ 50 nM
